Results on 1 molecule are retold here after patent publication EP0085283A1, “Pyroglutamyl-tryptophan derivatives, process for their preparation and their therapeutic applications” (Società Italo-Britannica L. Manetti - H. Roberts & C., priority 1981, dated 1983).

Common to all, as to format: in vivo
Assay [1] concerns male rats of Wistar strain. Kind of assay: Open field behavior in a circular open field arena. To be noted: 10 mg/kg ip. How it is done: (§1) Behavioral effects of DL-pyroglutamyl-tryptophan (pGlu-Trp) have been studied in male rats of Wistar strain (purchased from Morini, Italy), weighing 130+10 g at the onset of experiments. Animals were kept under light- dark cycle (lights on between 8.00 and 20.00) with standard food and water available ad lib. Animals were injected intraperitoneally (ip) with 10 or 100 mg/kg of pGlu-Trp dissolved in a solution of NaHCO3 1 N and adjusted at pH 7.4 with HC1 0.1 N. Control animals received injection of the vehicle alone. Injections were performed 1 h prior to the behavioral testing. The animals were used only once for the behavioral experiments.
Open field behavior was studied in a circular open field arena. Ambulation (number of floor units entered), rearing, grooming and defecation scores were recorded during a 5-min observation session.

For assay [2], the system named is male rats of Wistar strain. Kind of assay: Acquisition of shuttle-box active avoidance behavior (single session test). Conditions: 1 h prior to testing. How it is done: as §1
Acquisition of active avoidance behavior was studied in a single session test. The rats were trained to avoid the unconditioned stimulus (US) of a scrambled electrical footshock (0.20 mA) delivered through the grid floor. The conditioned stimulus (CS) was a buzzer presented for 5 sec prior to the US. If no escape occurred within 20 sec of CS/US presentation, the shock was terminated. A maximum of 30 conditioning trials were given with a variable intertrial interval averaging 60 sec. The learning criterion was 5 consecutive conditioned avoidance responses (CARs). For those animals that reached this criterion in less than 30 trials, the remaining trials up to a total of 30 were considered as lARs. Indexes of avoidance behavior were the total number of CARs and the number of learners.

Assay [3] relates to male rats of Wistar strain. Kind of assay: Hot plate test for analgesia. To be noted: 10 mg/kg ip. As to the method:
as §1
Hot plate test for analgesia was studied with a circular hot plate ([…]) where the animals were placed singularly.
The latency in sec to the first behavioral reaction to hot pain (licking of paw) was recorded.

As to `O=C1CC[C@@H](C(=O)N[C@@H](Cc2c[nH]c3ccccc23)C(=O)O)N1` (racemic) [pGlu-Trp, pyroglutamyltryptophan], in assay [1], the defecation boli entry is “decreased”. For the same molecule, the “Ambulation (number of floor units entered)” value in assay [1] (5-min observation session, controls 94.5+4.7) is given as 78.5+4.4. In addition, in assay [1] (treated versus control rats), the grooming result is “No difference” and the rearing result is reported as “No difference”. Further, the “total number of CARs” value in assay [2] (10 mg/kg ip, controls 14.8+1.50, difference not significant) was 12.7+1.99. The “number of CARs” value in assay [2] (100 mg/kg ip, controls 14.2+1.47, p<0.02) is reported as 19.0+1.21. Further, the percentage of learners in assay [2] (100 mg/kg ip, controls 66.6%) was 90.9%. In assay [3], the “analgesic effect (latency to licking of paw)” value is “No analgesic effect”.
